Test results taken from PubChem BioAssay (NCI).
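Growth conditions: 96-well plates. Treatment: test compound, 48 hours, 5 concentrations. Analysis: linear interpolation between bracketing concentrations; unreached endpoints set to highest concentration. Definition used: TGI = concentration required for complete inhibition of growth.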

Tests used:
Experiment in all cases: NCI-60 cell line screen, 48 h
786-0 renal = test system: 786-0 renal
A498 renal = test system: A498 renal
ACHN renal = test system: ACHN renal
CAKI-1 renal = test system: CAKI-1 renal
CCRF-CEM leukemia = test system: CCRF-CEM leukemia
DU-145 prostate = test system: DU-145 prostate
EKVX NSCLC = test system: EKVX NSCLC
HCC-2998 colon = test system: HCC-2998 colon
HCT-116 colon = test system: HCT-116 colon
HCT-15 colon = test system: HCT-15 colon
HL-60(TB) leukemia = test system: HL-60(TB) leukemia
HOP-62 NSCLC = test system: HOP-62 NSCLC
HOP-92 NSCLC = test system: HOP-92 NSCLC
HS 578T breast = test system: HS 578T breast
HT29 colon = test system: HT29 colon
IGROV1 ovarian = test system: IGROV1 ovarian
K-562 leukemia = test system: K-562 leukemia
KM12 colon = test system: KM12 colon
LOX IMVI melanoma = test system: LOX IMVI melanoma
M14 melanoma = test system: M14 melanoma
MCF7 breast = test system: MCF7 breast
MDA-MB-231 breast = test system: MDA-MB-231 breast
MDA-MB-435 = test system: MDA-MB-435
MDA-N = test system: MDA-N
MOLT-4 leukemia = test system: MOLT-4 leukemia
NCI-H226 lung = test system: NCI-H226 lung
NCI-H23 lung = test system: NCI-H23 lung
NCI-H460 lung = test system: NCI-H460 lung
NCI-H522 lung = test system: NCI-H522 lung
NCI/ADR-RES ovarian = test system: NCI/ADR-RES ovarian
OVCAR-3 ovarian = test system: OVCAR-3 ovarian
OVCAR-4 ovarian = test system: OVCAR-4 ovarian
OVCAR-5 ovarian = test system: OVCAR-5 ovarian
OVCAR-8 ovarian = test system: OVCAR-8 ovarian
PC-3 prostate = test system: PC-3 prostate
RPMI-8226 leukemia = test system: RPMI-8226 leukemia
RXF 393 renal = test system: RXF 393 renal
SF-268 CNS = test system: SF-268 CNS
SF-295 CNS = test system: SF-295 CNS
SF-539 CNS = test system: SF-539 CNS
SK-MEL-2 melanoma = test system: SK-MEL-2 melanoma
SK-MEL-28 melanoma = test system: SK-MEL-28 melanoma
SK-MEL-5 melanoma = test system: SK-MEL-5 melanoma
SK-OV-3 ovarian = test system: SK-OV-3 ovarian
SNB-75 CNS = test system: SNB-75 CNS
SR leukemia = test system: SR leukemia
SW-620 colon = test system: SW-620 colon
T-47D breast = test system: T-47D breast
TK-10 renal = test system: TK-10 renal
U251 CNS = test system: U251 CNS
UACC-257 melanoma = test system: UACC-257 melanoma
UO-31 renal = test system: UO-31 renal
A549 NSCLC = test system: A549 NSCLC
COLO 205 colon = test system: COLO 205 colon
MALME-3M melanoma = test system: MALME-3M melanoma
SN12C renal = test system: SN12C renal
SNB-19 CNS = test system: SNB-19 CNS
UACC-62 melanoma = test system: UACC-62 melanoma

CC1=NN(c2cccc(Cl)c2)C2(SCC(=O)N2c2nc3ccccc3s2)/C1=C\c1ccccc1 (configuration not stated)
TGI (786-0 renal): 31 µM | TGI (A498 renal): 51.8 µM | TGI (ACHN renal): 48.4 µM | TGI (CAKI-1 renal): 53 µM | TGI (CCRF-CEM leukemia): > 100 µM | TGI (DU-145 prostate): 45.3 µM | TGI (EKVX NSCLC): > 100 µM | TGI (HCC-2998 colon): 29.3 µM | TGI (HCT-116 colon): 29.4 µM | TGI (HCT-15 colon): 37.4 µM | TGI (HL-60(TB) leukemia): 67.7 µM | TGI (HOP-62 NSCLC): 56.7 µM | TGI (HOP-92 NSCLC): 25.6 µM | TGI (HS 578T breast): 55.4 µM | TGI (HT29 colon): 44.8 µM | TGI (IGROV1 ovarian): 58.7 µM | TGI (K-562 leukemia): 54.4 µM | TGI (KM12 colon): 32.2 µM | TGI (LOX IMVI melanoma): 66.6 µM | TGI (M14 melanoma): 70.1 µM | TGI (MCF7 breast): 84.3 µM | TGI (MDA-MB-231 breast): 55.5 µM | TGI (MDA-MB-435): 38.9 µM | TGI (MDA-N): 42.3 µM | TGI (MOLT-4 leukemia): 60.2 µM | TGI (NCI-H226 lung): 97.4 µM | TGI (NCI-H23 lung): 51.9 µM | TGI (NCI-H460 lung): 32.4 µM | TGI (NCI-H522 lung): 34.6 µM | TGI (NCI/ADR-RES ovarian): 83.3 µM | TGI (OVCAR-3 ovarian): > 100 µM | TGI (OVCAR-4 ovarian): 62.7 µM | TGI (OVCAR-5 ovarian): 58.8 µM | TGI (OVCAR-8 ovarian): 45.7 µM | TGI (PC-3 prostate): 64.2 µM | TGI (RPMI-8226 leukemia): 46.8 µM | TGI (RXF 393 renal): 40.6 µM | TGI (SF-268 CNS): 54.4 µM | TGI (SF-295 CNS): 81.2 µM | TGI (SF-539 CNS): > 100 µM | TGI (SK-MEL-2 melanoma): 46.7 µM | TGI (SK-MEL-28 melanoma): > 100 µM | TGI (SK-MEL-5 melanoma): 30.3 µM | TGI (SK-OV-3 ovarian): 55.1 µM | TGI (SNB-75 CNS): > 100 µM | TGI (SR leukemia): 63.3 µM | TGI (SW-620 colon): 37.3 µM | TGI (T-47D breast): > 100 µM | TGI (TK-10 renal): > 100 µM | TGI (U251 CNS): 44.3 µM | TGI (UACC-257 melanoma): 85.2 µM | TGI (UO-31 renal): 63.6 µM

CCOC(=O)C(NC(=O)CC)(Nc1ccc(S(=O)(=O)Nc2ncccn2)cc1)C(F)(F)F (configuration not stated)
TGI (786-0 renal): > 100 µM | TGI (A549 NSCLC): > 100 µM | TGI (ACHN renal): > 100 µM | TGI (CAKI-1 renal): > 100 µM | TGI (CCRF-CEM leukemia): > 100 µM | TGI (COLO 205 colon): > 100 µM | TGI (DU-145 prostate): > 100 µM | TGI (EKVX NSCLC): > 100 µM | TGI (HCC-2998 colon): > 100 µM | TGI (HCT-116 colon): > 100 µM | TGI (HCT-15 colon): > 100 µM | TGI (HL-60(TB) leukemia): > 100 µM | TGI (HOP-62 NSCLC): > 100 µM | TGI (HOP-92 NSCLC): > 100 µM | TGI (HS 578T breast): > 100 µM | TGI (HT29 colon): > 100 µM | TGI (IGROV1 ovarian): > 100 µM | TGI (K-562 leukemia): > 100 µM | TGI (KM12 colon): > 100 µM | TGI (LOX IMVI melanoma): > 100 µM | TGI (M14 melanoma): > 100 µM | TGI (MALME-3M melanoma): > 100 µM | TGI (MCF7 breast): > 100 µM | TGI (MDA-MB-231 breast): > 100 µM | TGI (MDA-MB-435): > 100 µM | TGI (MDA-N): > 100 µM | TGI (MOLT-4 leukemia): > 100 µM | TGI (NCI-H226 lung): > 100 µM | TGI (NCI-H23 lung): > 100 µM | TGI (NCI-H460 lung): > 100 µM | TGI (NCI-H522 lung): > 100 µM | TGI (NCI/ADR-RES ovarian): > 100 µM | TGI (OVCAR-3 ovarian): > 100 µM | TGI (OVCAR-4 ovarian): > 100 µM | TGI (OVCAR-5 ovarian): > 100 µM | TGI (OVCAR-8 ovarian): > 100 µM | TGI (PC-3 prostate): > 100 µM | TGI (RPMI-8226 leukemia): > 100 µM | TGI (RXF 393 renal): > 100 µM | TGI (SF-268 CNS): > 100 µM | TGI (SF-295 CNS): > 100 µM | TGI (SF-539 CNS): > 100 µM | TGI (SK-MEL-28 melanoma): > 100 µM | TGI (SK-MEL-5 melanoma): > 100 µM | TGI (SK-OV-3 ovarian): > 100 µM | TGI (SN12C renal): > 100 µM | TGI (SNB-19 CNS): > 100 µM | TGI (SNB-75 CNS): > 100 µM | TGI (SR leukemia): > 100 µM | TGI (SW-620 colon): > 100 µM | TGI (T-47D breast): > 100 µM | TGI (U251 CNS): > 100 µM | TGI (UACC-257 melanoma): > 100 µM | TGI (UACC-62 melanoma): > 100 µM | TGI (UO-31 renal): > 100 µM
